The values that follow come from ChEMBL document CHEMBL5055681, “Optimized protocols for assessing libraries of poorly soluble sortase A inhibitors for antibacterial activity against medically-relevant bacteria, toxicity and enzyme inhibition” (Bioorg Med Chem, 2021).

One series relates to Escherichia coli. The series is described as follows: Antimicrobial activity against Escherichia coli ATCC 25922 assessed as bacterial growth inhibition measured after 24 hrs by resazurin dye based broth microdilution method. The format is functional.
Series [1] relates to Staphylococcus aureus. The series is described as follows: Antimicrobial activity against Staphylococcus aureus ATCC 25923 assessed as bacterial growth inhibition measured after 24 hrs by resazurin dye based broth microdilution method. The class given is functional. On the technique in general: Resazurin is reduced to fluorescent resorufin, in cell work by metabolically active cells.

Series [2] concerns Staphylococcus aureus. As to the kind of experiment: Antimicrobial activity against Staphylococcus aureus ATCC 25923 assessed as zone of inhibition at 125 ug/ml measured after 24 hrs by disc diffusion method. As to conditions: dose 125.0 µg/ml. The class given is functional, organism-based. In general terms: Agar diffusion results depend on both activity and mobility in agar.

The nature of series [3]: Ratio of MIC for antimicrobial activity against Staphylococcus aureus ATCC 25923 to IC50 for inhibition of Staphylococcus aureus sortase A using Abz-LPETGK(Dnp)-NH2 fluorescent peptide as substrate. The class given is toxicity.
Series [4] concerns Staphylococcus aureus. The series is described as follows: Antimicrobial activity against Staphylococcus aureus ATCC 25923 assessed as bacterial growth inhibition measured after 24 hrs by CLSI based agar dilution method. The class given is functional. Background: In agar dilution the substance is mixed into plates at graded concentrations.
The nature of series [5]: Inhibition of Staphylococcus aureus sortase A using Abz-LPETGK(Dnp)-NH2 fluorescent peptide as a substrate assessed as substrate cleavage measured over 60 mins by FRET assay.
Series [6] deals with HEK293. As to the kind of experiment: Cytotoxicity against HEK293 cells assessed as reduction in cell viability at 31.3 to 1000 ug/ml measured after 24 hrs by resazurin dye based cell viability assay. As to conditions: human, hek293, 24 h, dose 31.3-1000 µg/ml.
A short description of series [7]: Solubility of the compound in 5% DMSO in MHB assessed as precipitation at up to 3.9 ug/ml measured over 24 hrs. The class given is physicochemical. As to conditions: dose < 3.9 µg/ml.
The next series relates to Pseudomonas aeruginosa. The series is described as follows: Antimicrobial activity against Pseudomonas aeruginosa ATCC 27853 assessed as bacterial growth inhibition measured after 24 hrs by resazurin dye based broth microdilution method. As to conditions: ATCC 27853, 24 h.
The subject of series [8] is Staphylococcus aureus. As to the kind of experiment: Antimicrobial activity against Staphylococcus aureus MRSA ATCC 43300 assessed as bacterial growth inhibition measured after 24 hrs by resazurin dye based broth microdilution method. The class given is functional.
The test system of series [9] is Staphylococcus aureus. As to the kind of experiment: Antimicrobial activity against Staphylococcus aureus ATCC 25923 assessed as zone of inhibition at 250 ug/ml measured after 24 hrs by disc diffusion method. The class given is functional, organism-based. As to conditions: dose 250.0 µg/ml.
Series [10] in a line: Solubility of the compound in 5% DMSO in MHB assessed as precipitation at up to 2.0 ug/ml measured over 24 hrs. The format is physicochemical. As to conditions: dose < 2 µg/ml.
Series [11] deals with Staphylococcus aureus. The series is described as follows: Antimicrobial activity against Staphylococcus aureus ATCC 25923 assessed as zone of inhibition at 500 ug/ml measured after 24 hrs by disc diffusion method. The format is functional.
The test system of series [12] is HEK293. The series is described as follows: Cytotoxicity against HEK293 cells assessed as reduction in cell viability at 62.5 to 2000 ug/ml measured after 24 hrs by resazurin dye based cell viability assay. As to conditions: human, hek293, 24 h, dose 62.5-2000 µg/ml.
The nature of series [13]: Solubility of the compound in 5% DMSO in MHB assessed as precipitation at up to 500 ug/ml measured over 24 hrs. As to conditions: dose < 500 µg/ml. The class given is physicochemical.

One may read the MIC as the lowest concentration found to suppress growth. The IC50 is the concentration needed to halve the response being measured.

Values after ≈ are worked out from the molar mass of the structure shown. Active and inactive are the calls of the source. The rule behind the calls is not given here.

Consider `COc1ccc2cc3[n+](cc2c1OC)CCc1cc2c(cc1-3)OCO2` [BERBERINE], for which the MIC with Escherichia coli was determined as 250 µg/mL; with Staphylococcus aureus [1] it was 125 µg/mL; with Staphylococcus aureus [4], 125 µg/mL; with Pseudomonas aeruginosa, 500 µg/mL; in the series on Staphylococcus aureus [8] it was 125 µg/mL. For the same molecule, in the series on Staphylococcus aureus [2], the outcome was Active. The Ratio in [3] came out at 18.1. Further, the IC50 in series [5] was found to be 6.9 µg/mL. In the series with HEK293 [6], the Activity entry is “Non-Toxic”. In addition, the solubility result in [7] is given as “Soluble”.

On to `O=C(/C=C/c1ccccc1)c1ccccc1` [CHALCONE], for which the MIC in the series on Escherichia coli worked out at 500 µg/mL (≈ 2400 µM); with Staphylococcus aureus [1], 125 µg/mL (≈ 600 µM); in the series with Staphylococcus aureus [4], 125 µg/mL (≈ 600 µM); with Pseudomonas aeruginosa it was 500 µg/mL (≈ 2400 µM); with Staphylococcus aureus [8], 125 µg/mL (≈ 600 µM). For the same molecule, in [3], the Ratio is given as 5. Besides, the IC50 in [5] amounted to 25.2 µg/mL (≈ 121 µM). Moreover, in the series with HEK293 [6], the Activity entry is on record as “Toxic”. Also, in the series on Staphylococcus aureus [9], the result was Active. Besides, the solubility entry in series [10] is recorded as “Soluble”. Also, the zone of inhibition at 500 µg/mL in the series on Staphylococcus aureus [11] (read-out: DIZ) is 16 mm.

Take `COc1cc(/C=C/C(=O)CC(=O)/C=C/c2ccc(O)c(OC)c2)ccc1O` [CURCUMIN]: the MIC in the series with Escherichia coli, in the series with Staphylococcus aureus [1], in the series with Staphylococcus aureus [4], in the series on Pseudomonas aeruginosa and in the series on Staphylococcus aureus [8] was 250 µg/mL (≈ 679 µM) each time. For the same molecule, in [3], the Ratio was 7.1. The IC50 in series [5] stood at 42.2 µg/mL (≈ 115 µM). The Activity entry in the series on HEK293 [12] is reported as “Toxic”. Also, the solubility result in [13] is reported as “Insoluble”. Also, the result with Staphylococcus aureus [11] (dose 500.0 µg/ml) was Active.

For `O=c1c(O)c(-c2ccc(O)c(O)c2)oc2cc(O)cc(O)c12` [QUERCETIN], the minimum inhibitory concentration (MIC) in the series on Escherichia coli, in the series on Staphylococcus aureus [1], with Staphylococcus aureus [4], with Pseudomonas aeruginosa and in the series on Staphylococcus aureus [8] was 250 µg/mL (≈ 827 µM) in each case. Besides, the Ratio in series [3] came out at 6. Further, the IC50 in [5] stood at 35.1 µg/mL (≈ 116 µM). Also, in the series on HEK293 [12], the Activity result is reported as “Non-Toxic”. The outcome with Staphylococcus aureus [9] was Active. Moreover, the solubility entry in series [13] is on record as “Insoluble”.
